Reference: PubChem BioAssay AID1963978 (Molecular Pharmacology Branch, DTP, NCI, 2024)

Tested on: 616215-338-R-J1-PDC spheroids with HUVEC/MSC, viability
Assay: Anticancer human tumor 616215-338-R-J1-PDC patient-derived colon adenocarcinoma cell line growth inhibition [PI3K]
Details: for viability, T/C: stronger effect = lower value
Method in brief: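 High-throughput combination screen: PI3K inhibitors crossed with targeted small molecules on complex spheroids of tumor cells, HUVEC and MSCs at 37 degrees C, 5% CO2. Top concentration was at or near clinical Cmax (otherwise 10 microM), with half-log decrements.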

[1] = curve of first compound, second compound 0.0316 µM
[2] = curve of first compound, second compound 0.1 µM
[3] = curve of first compound, second compound 0.316 µM
[4] = curve of first compound, second compound 1 µM
[5] = curve of first compound, second compound 3.16 µM
[6] = curve of first compound, second compound 10 µM
[7] = second compound 0.0316 µM, first compound 0.0316 µM
[8] = second compound 0.0316 µM, first compound 0.1 µM
[9] = second compound 0.0316 µM, first compound 0.316 µM
[10] = second compound 0.0316 µM, first compound 1 µM
[11] = second compound 0.0316 µM, first compound 3.16 µM
[12] = second compound 0.0316 µM, first compound 10 µM
[13] = second compound 0.1 µM, first compound 0.0316 µM
[14] = second compound 0.1 µM, first compound 0.1 µM
[15] = second compound 0.1 µM, first compound 0.316 µM
[16] = second compound 0.1 µM, first compound 1 µM
[17] = second compound 0.1 µM, first compound 3.16 µM
[18] = second compound 0.1 µM, first compound 10 µM
[19] = second compound 0.316 µM, first compound 0.0316 µM
[20] = second compound 0.316 µM, first compound 0.1 µM
[21] = second compound 0.316 µM, first compound 0.316 µM
[22] = second compound 0.316 µM, first compound 1 µM
[23] = second compound 0.316 µM, first compound 3.16 µM
[24] = second compound 0.316 µM, first compound 10 µM
[25] = second compound 1 µM, first compound 0.0316 µM
[26] = second compound 1 µM, first compound 0.1 µM
[27] = second compound 1 µM, first compound 0.316 µM
[28] = second compound 1 µM, first compound 1 µM
[29] = second compound 1 µM, first compound 3.16 µM
[30] = second compound 1 µM, first compound 10 µM
[31] = second compound 3.16 µM, first compound 0.0316 µM
[32] = second compound 3.16 µM, first compound 0.1 µM
[33] = second compound 3.16 µM, first compound 0.316 µM
[34] = second compound 3.16 µM, first compound 1 µM
[35] = second compound 3.16 µM, first compound 3.16 µM
[36] = second compound 3.16 µM, first compound 10 µM
[37] = second compound 10 µM, first compound 0.0316 µM
[38] = second compound 10 µM, first compound 0.1 µM
[39] = second compound 10 µM, first compound 0.316 µM
[40] = second compound 10 µM, first compound 1 µM
[41] = second compound 10 µM, first compound 3.16 µM
[42] = second compound 10 µM, first compound 10 µM
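Note: spheroids exposed to agents for seven days before the viability read.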

Work on CC1(C)CCC(Nc2ncc(C(F)(F)F)c(-c3c[nH]c4c(P(C)(C)=O)c(C#N)ccc34)n2)CN1 (configuration not stated) + CC(Nc1ncnc2nc[nH]c12)c1cc2cccc(Cl)c2c(=O)n1-c1ccccc1 yielded an IC50 [1] of 31.6 nM, an IC50 [2] of 31.6 nM and an IC50 [3] of 31.6 nM. For the same molecule, the IC50 [4] was < 31.6 nM, the IC50 [5] was 1090 nM and the IC50 [6] was 714 nM. For the same molecule, the viability, T/C [7] was 53.9%, the viability, T/C [8] was 39% and the viability, T/C [9] was 44.9%. For the same molecule, the viability, T/C [10] was 51.6%, the viability, T/C [11] was 51.8% and the viability, T/C [12] was 0.44%. For the same molecule, the viability, T/C [13] was 50.6%, the viability, T/C [14] was 37% and the viability, T/C [15] was 44.8%. The viability, T/C [16] was 45.8%, the viability, T/C [17] was 54% and the viability, T/C [18] was 1.73%. It also gave a viability, T/C [19] of 44%, a viability, T/C [20] of 37.4% and a viability, T/C [21] of 41.1%. It also gave a viability, T/C [22] of 42.3%, a viability, T/C [23] of 51.3% and a viability, T/C [24] of 0.53%. For the same molecule, the viability, T/C [25] was 42.2%, the viability, T/C [26] was 41.1% and the viability, T/C [27] was 39.9%. The viability, T/C [28] was 70.7%, the viability, T/C [29] was 46.5% and the viability, T/C [30] was 1.13%. The viability, T/C [31] was 44.1%, the viability, T/C [32] was 39.4% and the viability, T/C [33] was 64.1%. It also gave a viability, T/C [34] of 57.4%, a viability, T/C [35] of 41.8% and a viability, T/C [36] of 0.36%. It also gave a viability, T/C [37] of 48%, a viability, T/C [38] of 51.3% and a viability, T/C [39] of 58.4%. The viability, T/C [40] was 48.4%, the viability, T/C [41] was 20.9% and the viability, T/C [42] was 0.61%.
Cn1cnc2c(F)c(Nc3ccc(Br)cc3Cl)c(C(=O)NOCCO)cc21 + Cc1nc(NC(=O)N2CCCC2C(N)=O)sc1-c1ccnc(C(C)(C)C(F)(F)F)c1 gave an IC50 [1] of 1010 nM, an IC50 [2] of 1590 nM and an IC50 [3] of 1110 nM. The IC50 [4] was 725 nM, the IC50 [5] was 423 nM and the IC50 [6] was 379 nM. It also gave a viability, T/C (second compound 0.0316 µM, first compound 0.00949 µM) of 107%, a viability, T/C (second compound 0.0316 µM, first compound 0.03 µM) of 94.8% and a viability, T/C (second compound 0.0316 µM, first compound 0.0949 µM) of 99.2%. For the same molecule, the viability, T/C (second compound 0.0316 µM, first compound 0.3 µM) was 79.9%, the viability, T/C (second compound 0.0316 µM, first compound 0.949 µM) was 50.1% and the viability, T/C (second compound 0.0316 µM, first compound 3 µM) was 44.3%. The viability, T/C (second compound 0.1 µM, first compound 0.00949 µM) was 111%, the viability, T/C (second compound 0.1 µM, first compound 0.03 µM) was 91.3% and the viability, T/C (second compound 0.1 µM, first compound 0.0949 µM) was 98.2%. For the same molecule, the viability, T/C (second compound 0.1 µM, first compound 0.3 µM) was 91.8%, the viability, T/C (second compound 0.1 µM, first compound 0.949 µM) was 55.3% and the viability, T/C (second compound 0.1 µM, first compound 3 µM) was 43.4%. It also gave a viability, T/C (second compound 0.316 µM, first compound 0.00949 µM) of 109%, a viability, T/C (second compound 0.316 µM, first compound 0.03 µM) of 101% and a viability, T/C (second compound 0.316 µM, first compound 0.0949 µM) of 77.4%. The viability, T/C (second compound 0.316 µM, first compound 0.3 µM) was 73.1%, the viability, T/C (second compound 0.316 µM, first compound 0.949 µM) was 50.1% and the viability, T/C (second compound 0.316 µM, first compound 3 µM) was 36.9%. For the same molecule, the viability, T/C (second compound 1 µM, first compound 0.00949 µM) was 99.7%, the viability, T/C (second compound 1 µM, first compound 0.03 µM) was 95.6% and the viability, T/C (second compound 1 µM, first compound 0.0949 µM) was 83.4%. For the same molecule, the viability, T/C (second compound 1 µM, first compound 0.3 µM) was 75.8%, the viability, T/C (second compound 1 µM, first compound 0.949 µM) was 39.2% and the viability, T/C (second compound 1 µM, first compound 3 µM) was 36.5%. The viability, T/C (second compound 3.16 µM, first compound 0.00949 µM) was 106%, the viability, T/C (second compound 3.16 µM, first compound 0.03 µM) was 94.5% and the viability, T/C (second compound 3.16 µM, first compound 0.0949 µM) was 79.3%. It also gave a viability, T/C (second compound 3.16 µM, first compound 0.3 µM) of 55.4%, a viability, T/C (second compound 3.16 µM, first compound 0.949 µM) of 36.4% and a viability, T/C (second compound 3.16 µM, first compound 3 µM) of 26.2%. The viability, T/C (second compound 10 µM, first compound 0.00949 µM) was 101%, the viability, T/C (second compound 10 µM, first compound 0.03 µM) was 86.3% and the viability, T/C (second compound 10 µM, first compound 0.0949 µM) was 94%. It also gave a viability, T/C (second compound 10 µM, first compound 0.3 µM) of 54.1%, a viability, T/C (second compound 10 µM, first compound 0.949 µM) of 21.9% and a viability, T/C (second compound 10 µM, first compound 3 µM) of 1.33%.
C=CC(=O)N1CCN(c2nc(=O)n(-c3c(C)ccnc3C(C)C)c3nc(-c4c(O)cccc4F)c(F)cc23)C(C)C1 (configuration not stated) + Cc1nc(NC(=O)N2CCCC2C(N)=O)sc1-c1ccnc(C(C)(C)C(F)(F)F)c1 was tested, and the IC50 [1] was > 10000 nM, the IC50 [2] was > 10000 nM and the IC50 [3] was > 10000 nM. The IC50 [4] was > 10000 nM, the IC50 [5] was > 10000 nM and the IC50 [6] was > 10000 nM. For the same molecule, the viability, T/C [7] was 104%, the viability, T/C [8] was 92.1% and the viability, T/C [9] was 99.2%. It also gave a viability, T/C [10] of 88.3%, a viability, T/C [11] of 113% and a viability, T/C [12] of 95.2%. It also gave a viability, T/C [13] of 100%, a viability, T/C [14] of 92.7% and a viability, T/C [15] of 91.6%. For the same molecule, the viability, T/C [16] was 98.8%, the viability, T/C [17] was 103% and the viability, T/C [18] was 90.3%. The viability, T/C [19] was 108%, the viability, T/C [20] was 103% and the viability, T/C [21] was 111%. It also gave a viability, T/C [22] of 101%, a viability, T/C [23] of 104% and a viability, T/C [24] of 86.5%. For the same molecule, the viability, T/C [25] was 97.5%, the viability, T/C [26] was 93.3% and the viability, T/C [27] was 109%. It also gave a viability, T/C [28] of 99.1%, a viability, T/C [29] of 110% and a viability, T/C [30] of 84.9%. It also gave a viability, T/C [31] of 98.6%, a viability, T/C [32] of 98.3% and a viability, T/C [33] of 102%. The viability, T/C [34] was 89.5%, the viability, T/C [35] was 95.8% and the viability, T/C [36] was 80.2%. It also gave a viability, T/C [37] of 94.4%, a viability, T/C [38] of 86.7% and a viability, T/C [39] of 98.7%. The viability, T/C [40] was 91.1%, the viability, T/C [41] was 95.9% and the viability, T/C [42] was 83.6%.
With CC(C)NCC(C(=O)N1CCN(c2ncnc3c2C(C)CC3O)CC1)c1ccc(Cl)cc1 (configuration not stated) the viability, T/C (compound 0.0316 µM) was 98.8% [middle of 4 runs], the viability, T/C (compound 0.1 µM) was 94.3% [middle of 4 runs] and the viability, T/C (compound 0.316 µM) was 95.1% [middle of 4 runs]. The viability, T/C (compound 1 µM) was 102% [middle of 4 runs], the viability, T/C (compound 3.16 µM) was 77.5% [middle of 4 runs] and the IC50 (curve of compound) was 6.53 µM [middle of 4 runs].
